According to ChEMBL document CHEMBL4507300 (2021):

How the values were obtained:
[1] = target: 5-hydroxytryptamine receptor 1A (Homo sapiens) (UniProt P08908); conditions: Compound concentration 10.0 uM
[2] = target: Alpha-1A adrenergic receptor (Homo sapiens) (UniProt P35348); conditions: Compound concentration 10.0 uM
[3] = target: Muscarinic acetylcholine receptor M1 (Homo sapiens) (UniProt P11229); conditions: Compound concentration 10.0 uM
[4] = target: Alpha-2B adrenergic receptor (Homo sapiens) (UniProt P18089); conditions: Compound concentration 10.0 uM
[5] = target: 5-hydroxytryptamine receptor 2A (Homo sapiens) (UniProt P28223); conditions: Compound concentration 10.0 uM
[6] = target: 5-hydroxytryptamine receptor 1E (Homo sapiens) (UniProt P28566); conditions: Compound concentration 10.0 uM
[7] = target: Alpha-2A adrenergic receptor (Homo sapiens) (UniProt P08913); conditions: Compound concentration 10.0 uM
Alpha-2A adrenergic receptor (Homo sapiens), sequence (P08913 whole entry): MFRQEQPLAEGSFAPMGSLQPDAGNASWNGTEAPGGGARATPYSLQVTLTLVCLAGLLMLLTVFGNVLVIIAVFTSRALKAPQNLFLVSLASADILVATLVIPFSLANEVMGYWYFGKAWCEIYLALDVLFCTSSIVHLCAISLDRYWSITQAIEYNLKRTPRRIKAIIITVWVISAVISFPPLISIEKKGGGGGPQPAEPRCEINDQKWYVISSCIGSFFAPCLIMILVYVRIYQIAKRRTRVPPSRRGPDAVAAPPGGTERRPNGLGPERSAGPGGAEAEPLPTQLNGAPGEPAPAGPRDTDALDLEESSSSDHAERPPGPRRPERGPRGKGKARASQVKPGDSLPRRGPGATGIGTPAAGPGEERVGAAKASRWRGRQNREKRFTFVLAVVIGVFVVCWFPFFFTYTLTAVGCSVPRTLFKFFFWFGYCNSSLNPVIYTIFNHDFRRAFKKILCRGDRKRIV

[8] = target: 5-hydroxytryptamine receptor 6 (Homo sapiens) (UniProt P50406); conditions: Compound concentration 10.0 uM
5-hydroxytryptamine receptor 6 (Homo sapiens), sequence (P50406 whole entry): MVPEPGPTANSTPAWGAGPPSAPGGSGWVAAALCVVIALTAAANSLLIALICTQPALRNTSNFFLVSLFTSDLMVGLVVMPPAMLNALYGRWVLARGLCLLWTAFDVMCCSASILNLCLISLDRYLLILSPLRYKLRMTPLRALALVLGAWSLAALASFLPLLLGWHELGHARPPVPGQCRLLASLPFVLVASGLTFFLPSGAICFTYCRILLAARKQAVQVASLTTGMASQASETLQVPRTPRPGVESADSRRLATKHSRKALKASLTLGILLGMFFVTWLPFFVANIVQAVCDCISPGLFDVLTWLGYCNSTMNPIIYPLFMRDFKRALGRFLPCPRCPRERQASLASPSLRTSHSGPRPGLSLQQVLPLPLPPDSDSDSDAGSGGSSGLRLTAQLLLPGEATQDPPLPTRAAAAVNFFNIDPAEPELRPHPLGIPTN

[9] = target: Sodium-dependent dopamine transporter (Homo sapiens) (UniProt Q01959); conditions: Compound concentration 10.0 uM
[10] = target: Histamine H3 receptor (Homo sapiens) (UniProt Q9Y5N1); conditions: Compound concentration 10.0 uM
[11] = target: T1, GABA-A receptor; anion channel (Rattus norvegicus) (UniProt O09028+P15431+P18506+P18508+P19969+P20236+P23574+P23576+P28471+P28473+P30191+P62813+P63079+P63138+Q91ZM7+Q9ES14); conditions: Compound concentration 10.0 uM
[12] = target: Alpha-1B adrenergic receptor (Homo sapiens) (UniProt P35368); conditions: Compound concentration 10.0 uM
[13] = target: 5-hydroxytryptamine receptor 5A (Homo sapiens) (UniProt P47898); conditions: Compound concentration 10.0 uM
5-hydroxytryptamine receptor 5A (Homo sapiens), sequence (P47898 whole entry): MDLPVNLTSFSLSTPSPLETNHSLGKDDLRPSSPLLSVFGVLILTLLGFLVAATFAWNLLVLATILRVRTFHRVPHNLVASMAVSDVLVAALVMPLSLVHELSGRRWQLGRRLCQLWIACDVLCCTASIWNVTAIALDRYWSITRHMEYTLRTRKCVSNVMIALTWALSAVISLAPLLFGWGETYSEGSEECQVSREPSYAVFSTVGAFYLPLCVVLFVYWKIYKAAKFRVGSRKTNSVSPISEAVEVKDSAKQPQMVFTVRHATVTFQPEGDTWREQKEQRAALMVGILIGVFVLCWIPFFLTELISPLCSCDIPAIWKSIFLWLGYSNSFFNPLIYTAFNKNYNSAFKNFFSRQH

[14] = target: T2, Histamine H1 receptor (Homo sapiens, UniProt P35367); experiment: GPCRScan assay: inhibition of H1; set-up: radioligand conc. used [nm] 0.6 – 2.0, parental cells stable HEK
T2 sequence (P35367 whole entry): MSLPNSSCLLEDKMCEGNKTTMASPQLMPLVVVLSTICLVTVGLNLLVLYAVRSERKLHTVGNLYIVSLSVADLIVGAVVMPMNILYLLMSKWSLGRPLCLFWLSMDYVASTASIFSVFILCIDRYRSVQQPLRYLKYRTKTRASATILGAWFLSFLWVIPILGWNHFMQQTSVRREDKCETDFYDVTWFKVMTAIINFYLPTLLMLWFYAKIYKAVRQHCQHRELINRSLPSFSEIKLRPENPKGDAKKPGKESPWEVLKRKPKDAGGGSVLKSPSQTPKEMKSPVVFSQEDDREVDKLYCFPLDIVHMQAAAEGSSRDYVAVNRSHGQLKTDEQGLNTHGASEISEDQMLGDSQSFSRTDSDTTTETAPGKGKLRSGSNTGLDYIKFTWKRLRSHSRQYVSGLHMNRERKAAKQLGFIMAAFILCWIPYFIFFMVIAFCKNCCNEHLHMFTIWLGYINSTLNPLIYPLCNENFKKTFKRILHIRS

[15] = target: 5-hydroxytryptamine receptor 2C (Homo sapiens) (UniProt P28335); conditions: Compound concentration 10.0 uM
[16] = target: D(3) dopamine receptor (Homo sapiens) (UniProt P35462); conditions: Compound concentration 10.0 uM
[17] = target: Delta-type opioid receptor (Homo sapiens) (UniProt P41143); conditions: Compound concentration 10.0 uM
[18] = target: T3, Sodium-dependent serotonin transporter (Homo sapiens, UniProt P31645); experiment: GPCRScan assay: inhibition of SERT; set-up: radioligand conc. used [nm] 1.5 – 2.0, parental cells stable HEK
[19] = target: Histamine H2 receptor (Homo sapiens) (UniProt P25021); conditions: Compound concentration 10.0 uM
[20] = target: Muscarinic acetylcholine receptor M5 (Homo sapiens) (UniProt P08912); conditions: Compound concentration 10.0 uM
[21] = target: Sodium-dependent noradrenaline transporter (Homo sapiens) (UniProt P23975); conditions: Compound concentration 10.0 uM
Sodium-dependent noradrenaline transporter (Homo sapiens), sequence (P23975 whole entry): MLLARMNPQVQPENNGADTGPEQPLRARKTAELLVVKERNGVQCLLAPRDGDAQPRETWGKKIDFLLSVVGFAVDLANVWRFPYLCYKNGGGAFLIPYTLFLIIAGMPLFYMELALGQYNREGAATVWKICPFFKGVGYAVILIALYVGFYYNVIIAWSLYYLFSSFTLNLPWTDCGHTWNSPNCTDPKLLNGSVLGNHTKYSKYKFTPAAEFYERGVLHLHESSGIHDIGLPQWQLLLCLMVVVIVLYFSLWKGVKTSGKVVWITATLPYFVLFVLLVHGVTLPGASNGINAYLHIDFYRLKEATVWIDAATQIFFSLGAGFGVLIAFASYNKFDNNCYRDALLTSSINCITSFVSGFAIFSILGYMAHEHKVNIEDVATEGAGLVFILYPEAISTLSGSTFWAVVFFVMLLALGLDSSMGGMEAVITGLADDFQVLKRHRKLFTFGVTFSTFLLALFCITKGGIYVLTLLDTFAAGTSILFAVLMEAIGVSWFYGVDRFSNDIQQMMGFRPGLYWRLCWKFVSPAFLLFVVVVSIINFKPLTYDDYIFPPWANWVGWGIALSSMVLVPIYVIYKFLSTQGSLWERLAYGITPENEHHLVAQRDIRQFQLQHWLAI

[22] = target: D(2) dopamine receptor (Homo sapiens) (UniProt P14416); conditions: Compound concentration 10.0 uM
[23] = target: D(1B) dopamine receptor (Homo sapiens) (UniProt P21918); conditions: Compound concentration 10.0 uM
[24] = target: Muscarinic acetylcholine receptor M2 (Homo sapiens) (UniProt P08172); conditions: Compound concentration 10.0 uM
[25] = target: Beta-1 adrenergic receptor (Homo sapiens) (UniProt P08588); conditions: Compound concentration 10.0 uM
Beta-1 adrenergic receptor (Homo sapiens), sequence (P08588 whole entry, looked up): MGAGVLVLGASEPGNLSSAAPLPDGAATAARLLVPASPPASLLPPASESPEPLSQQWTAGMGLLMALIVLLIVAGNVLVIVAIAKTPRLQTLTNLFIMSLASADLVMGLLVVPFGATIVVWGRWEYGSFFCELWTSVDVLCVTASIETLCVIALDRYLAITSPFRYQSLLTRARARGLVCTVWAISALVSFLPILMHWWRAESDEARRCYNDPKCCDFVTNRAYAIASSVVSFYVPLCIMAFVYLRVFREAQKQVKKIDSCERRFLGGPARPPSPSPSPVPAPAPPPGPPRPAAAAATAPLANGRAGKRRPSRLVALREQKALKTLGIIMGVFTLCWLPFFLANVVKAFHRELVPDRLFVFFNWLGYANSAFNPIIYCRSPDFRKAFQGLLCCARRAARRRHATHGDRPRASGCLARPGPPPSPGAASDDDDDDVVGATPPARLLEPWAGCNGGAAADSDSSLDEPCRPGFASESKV

[26] = target: Mu-type opioid receptor (Homo sapiens) (UniProt P35372); conditions: Compound concentration 10.0 uM
[27] = target: T4, Sigma non-opioid intracellular receptor 1 (Homo sapiens, UniProt Q99720); experiment: GPCRScan assay: inhibition of Sigma 1; set-up: radioligand conc. used [nm] 4.0 – 5.0, parental cells HEKT
T4 sequence (Q99720 whole entry): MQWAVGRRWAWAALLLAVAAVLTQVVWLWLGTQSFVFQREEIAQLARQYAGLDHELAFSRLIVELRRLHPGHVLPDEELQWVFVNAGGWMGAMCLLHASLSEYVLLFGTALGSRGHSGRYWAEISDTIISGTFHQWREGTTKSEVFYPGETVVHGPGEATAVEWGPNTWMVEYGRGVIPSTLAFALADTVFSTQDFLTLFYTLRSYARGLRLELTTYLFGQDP

[28] = target: T5, 5-hydroxytryptamine receptor 2B (Homo sapiens, UniProt P41595); experiment: GPCRScan assay: inhibition of 5-HT2B; set-up: radioligand conc. used [nm] 1.0 – 2.0, parental cells stable HEK
T5 sequence (P41595 whole entry): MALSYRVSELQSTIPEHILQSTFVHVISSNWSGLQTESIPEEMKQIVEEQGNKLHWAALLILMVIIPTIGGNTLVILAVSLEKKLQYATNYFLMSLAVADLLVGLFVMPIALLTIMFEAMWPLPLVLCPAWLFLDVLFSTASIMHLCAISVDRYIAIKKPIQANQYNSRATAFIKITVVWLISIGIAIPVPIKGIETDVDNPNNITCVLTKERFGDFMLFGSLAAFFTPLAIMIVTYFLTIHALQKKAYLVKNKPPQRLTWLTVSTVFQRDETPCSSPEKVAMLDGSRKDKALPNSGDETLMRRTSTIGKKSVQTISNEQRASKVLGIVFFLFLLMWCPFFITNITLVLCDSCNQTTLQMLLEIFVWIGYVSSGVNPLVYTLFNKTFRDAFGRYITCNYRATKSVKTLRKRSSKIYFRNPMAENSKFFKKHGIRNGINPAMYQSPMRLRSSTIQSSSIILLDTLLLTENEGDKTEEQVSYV

[29] = target: Alpha-1D adrenergic receptor (Homo sapiens) (UniProt P25100); conditions: Compound concentration 10.0 uM
[30] = target: 5-hydroxytryptamine receptor 3A (Homo sapiens) (UniProt P46098); conditions: Compound concentration 10.0 uM
[31] = target: T1, GABA-A receptor; anion channel (Rattus norvegicus); conditions: Compound concentration 10.0 uM; remark: listed apart in the source
[32] = species on record: Rattus norvegicus; conditions: Compound concentration 10.0 uM
[33] = target: T2, Histamine H1 receptor; conditions: Compound concentration 10.0 uM
[34] = target: T4, Sigma non-opioid intracellular receptor 1; conditions: Compound concentration 10.0 uM
[35] = target: D(4) dopamine receptor (Homo sapiens) (UniProt P21917); conditions: Compound concentration 10.0 uM
[36] = target: Histamine H4 receptor (Homo sapiens) (UniProt Q9H3N8); conditions: Compound concentration 10.0 uM
[37] = target: 5-hydroxytryptamine receptor 7 (Homo sapiens) (UniProt P34969); conditions: Compound concentration 10.0 uM
[38] = target: T5, 5-hydroxytryptamine receptor 2B; conditions: Compound concentration 10.0 uM
[39] = target: Alpha-2C adrenergic receptor (Homo sapiens) (UniProt P18825); conditions: Compound concentration 10.0 uM
[40] = target: 5-hydroxytryptamine receptor 1D (Homo sapiens) (UniProt P28221); conditions: Compound concentration 10.0 uM
[41] = target: Kappa-type opioid receptor (Homo sapiens) (UniProt P41145); conditions: Compound concentration 10.0 uM
[42] = target: Beta-2 adrenergic receptor (Homo sapiens) (UniProt P07550); conditions: Compound concentration 10.0 uM
[43] = target: Beta-3 adrenergic receptor (Homo sapiens) (UniProt P13945); conditions: Compound concentration 10.0 uM
[44] = target: T3, Sodium-dependent serotonin transporter; conditions: Compound concentration 10.0 uM
[45] = target: 5-hydroxytryptamine receptor 1B (Homo sapiens) (UniProt P28222); conditions: Compound concentration 10.0 uM

Alpha-1A adrenergic receptor (Homo sapiens), sequence (P35348 whole entry): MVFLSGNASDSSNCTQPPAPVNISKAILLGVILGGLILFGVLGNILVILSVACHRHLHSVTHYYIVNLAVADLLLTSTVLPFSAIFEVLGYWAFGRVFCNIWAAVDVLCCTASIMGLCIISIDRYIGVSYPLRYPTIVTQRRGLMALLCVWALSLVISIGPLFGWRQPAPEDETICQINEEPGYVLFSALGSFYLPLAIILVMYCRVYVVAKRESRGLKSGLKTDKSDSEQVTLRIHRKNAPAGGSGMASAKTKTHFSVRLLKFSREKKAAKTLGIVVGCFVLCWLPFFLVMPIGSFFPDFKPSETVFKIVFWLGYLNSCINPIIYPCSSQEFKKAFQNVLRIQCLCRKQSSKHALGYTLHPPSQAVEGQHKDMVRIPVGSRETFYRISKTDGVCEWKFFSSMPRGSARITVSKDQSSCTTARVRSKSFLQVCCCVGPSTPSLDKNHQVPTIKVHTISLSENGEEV
Muscarinic acetylcholine receptor M1 (Homo sapiens), sequence (P11229 whole entry): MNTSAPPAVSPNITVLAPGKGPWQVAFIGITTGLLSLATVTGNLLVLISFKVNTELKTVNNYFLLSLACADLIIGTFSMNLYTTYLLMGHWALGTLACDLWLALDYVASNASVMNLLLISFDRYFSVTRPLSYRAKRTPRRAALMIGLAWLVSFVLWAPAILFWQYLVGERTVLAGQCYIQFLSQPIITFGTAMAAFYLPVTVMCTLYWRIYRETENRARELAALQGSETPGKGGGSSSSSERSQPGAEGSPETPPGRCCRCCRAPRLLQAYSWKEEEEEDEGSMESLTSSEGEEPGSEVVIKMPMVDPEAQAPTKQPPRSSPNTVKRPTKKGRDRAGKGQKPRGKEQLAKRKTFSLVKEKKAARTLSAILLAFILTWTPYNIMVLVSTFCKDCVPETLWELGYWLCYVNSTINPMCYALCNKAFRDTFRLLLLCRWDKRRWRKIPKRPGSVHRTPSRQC
5-hydroxytryptamine receptor 1A (Homo sapiens), sequence (P08908 whole entry): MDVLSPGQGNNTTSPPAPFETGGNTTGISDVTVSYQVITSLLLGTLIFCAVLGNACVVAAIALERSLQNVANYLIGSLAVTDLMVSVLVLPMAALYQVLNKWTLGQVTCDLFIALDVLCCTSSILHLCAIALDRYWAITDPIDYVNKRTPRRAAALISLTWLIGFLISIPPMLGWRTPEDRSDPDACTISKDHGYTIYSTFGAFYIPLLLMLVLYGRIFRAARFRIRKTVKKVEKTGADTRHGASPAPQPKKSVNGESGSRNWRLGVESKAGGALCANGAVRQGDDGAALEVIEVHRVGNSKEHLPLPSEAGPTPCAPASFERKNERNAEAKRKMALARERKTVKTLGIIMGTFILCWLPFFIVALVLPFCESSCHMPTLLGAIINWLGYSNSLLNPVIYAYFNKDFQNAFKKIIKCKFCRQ

inhibition [1]: 15.8%
inhibition [2]: 12.5%
inhibition [3]: -8.97%
inhibition [4]: 17.4%
inhibition [5]: 14.9%
inhibition [6]: -0.688%
inhibition [7]: 27.3%
inhibition [8]: 3.76%
inhibition [9]: -7.85%
inhibition [10]: 6.01%
inhibition [11]: 32.4%
inhibition [12]: 12.9%
inhibition [13]: 2.98%
Ki [14]: 19 nM
inhibition [15]: 13.5%
inhibition [16]: 20.1%
inhibition [17]: -5.54%
Ki [18]: 831 nM
inhibition [19]: 30.7%
inhibition [20]: 2.67%
inhibition [21]: 19.6%
inhibition [22]: 12.5%
inhibition [23]: 2.81%
inhibition [24]: 26.6%
inhibition [25]: 30.9%
inhibition [26]: 2.84%
Ki [27]: 263 nM
Ki [28]: 1600 nM
inhibition [29]: 12.7%
inhibition [30]: 20.4%
inhibition [31]: 30.5%
inhibition [32]: 18.5%
inhibition [33]: 73.4%
inhibition [34]: 80.7%
inhibition [35]: 14.4%
inhibition [36]: 21%
inhibition [37]: -5.94%
inhibition [38]: 51%
inhibition [39]: 16.3%
inhibition [40]: -0.959%
inhibition [41]: 14.2%
inhibition [42]: -6.8%
inhibition [43]: -4.01%
inhibition [44]: 84%
inhibition [45]: -2.26%
Compound: COc1cccc(CNC(=O)c2nc3scc(CN(C)Cc4ccccc4)c3c(=O)[nH]2)c1 [T-26f]
